The record followed here is patent US12268739B2, “Use of toll-like receptor 2 (TLR-2) agonist for modulating human immune response” (Children's Medical Center Corporation, priority 2018, dated 2025).

Assay [1] deals with NF-κB reporter THP1 cells. As to the kind of experiment: NF-kB-induced luminescence HTS in THP1-Lucia cells (384-well). The assay is classed as cell-based, human. The following applies: ranked at 3.3 μM; ~200,000 compounds tested; listed as 080. An excerpt:
HTS Overview: To identify immunomodulators/adjuvants that robustly activate human immune cells, ˜200,000 small molecules were screening in a THP1 cell-based assay. The chemical libraries screened included known bioactive and commercial libraries from various sources including commercial libraries such as ChemDiv, ChemBridge, and Asinex. All libraries were owned and provided by the Institute of Chemistry and Cell Biology (ICCB)—Longwood (Harvard Medical School). The project primary screen incorporated two distinct arms: a) a luciferase-based screen which corresponds to the relative activation of the NF-κB reporter; and b) a fluorescence-based screen, corresponding to the phenotypic adherence, a distinct marker of cell activation, of the human monocytic THP-1 cell lines. Described herein are small molecules identified in the screen that induce NF-kB activity based on a luciferase-based THP-1 cell screen.
THP-1 Cell Line and Culture Conditions. The THP1-Lucia™ cell line was obtained from Invivogen (San Diego, CA). THP1-Lucia cells, which are human monocytic cells derived from the blood of a child with leukemia, contain an NF-kB-inducible Luc reporter construct. This allows NF-kB activation to be measured by quantifying the luminescence from the secreted luciferase enzyme. THP1-Lucia cells were cultured in RPMI 1640 supplemented with 10% non-heat inactivated fetal bovine serum (FBS), 10 mM HEPES, 1.0 mM sodium pyruvate, 50 ug/ml Pen-Strep, and 100 ug/mL Normocin™. Once cultured, the cells were stored in a 37° C. incubator with 5% CO2 and a humidified atmosphere. Cells were passaged every 2-3 days and not allowed to exceed a concentration of 2.0×10^6 cells/ml media.
NF-kB-induced Luminescence Assay. THP1-Lucia cells between passage 15 and 18 and suspended in culture medium were dispensed into 384-well black clear-bottom plates (Corning 3712) at 30,000 cells/30 μl/well using a Combi liquid dispenser. To allow comparison to a benchmark small molecule with known immune stimulating activity, cells at the same concentration were stimulated with 50 μM R848, a TLR7/8 agonist, in 0.3% DMSO and added to every other well of column 24, which was left empty of cells, by multichannel pipette at the same volume. Five μl of 700 nM Phorbol myristate acetate (PMA) in THP1 culture media and 2.3% DMSO, a known peripheral blood cell mitogen, was added to every other well of column 23 by multichannel pipette (final concentration in well: 100 nM in 0.3% DMSO). Five μl of THP1 culture media with 2.3% DMSO was added to the remaining wells of column 23 by multichannel pipette (final concentration 0.3% DMSO). One hundred nl aliquots of library compounds diluted in 100% DMSO were transferred from their original 384-well plates to the assay plates using a Seiko pin transfer machine. Each library plate was pinned in duplicate, yielding two assay plates with identical conditions for comparison. Plates were then incubated for 24 hours at 37 C with 5% CO2 in humid conditions. Following incubation, 10 μL of supernatant was removed from each well and transferred to a white plate (Corning 3570) using a Vprep liquid transfer machine. 10 μL of recombinant Lucia protein (Invivogen) diluted 1:2000 in THP1 culture media was added to empty well 24P. Using a Combi liquid dispenser, 50 μL/well of Quanti-Luc substrate (Invivogen) diluted 1:3 in sterile water was added to the assay plate. Immediately after adding the substrate, the luminescence was read using a PerkinElmer Envision plate reader.

For assay [2], the target named is T1, human TLR2 (Homo sapiens, UniProt O60603).
T1 construct: expressed in transfected cells; host or cells: HEK-Blue (human embryonic kidney) cells with an NF-kB-inducible SEAP reporter
T1 sequence (O60603 21-784): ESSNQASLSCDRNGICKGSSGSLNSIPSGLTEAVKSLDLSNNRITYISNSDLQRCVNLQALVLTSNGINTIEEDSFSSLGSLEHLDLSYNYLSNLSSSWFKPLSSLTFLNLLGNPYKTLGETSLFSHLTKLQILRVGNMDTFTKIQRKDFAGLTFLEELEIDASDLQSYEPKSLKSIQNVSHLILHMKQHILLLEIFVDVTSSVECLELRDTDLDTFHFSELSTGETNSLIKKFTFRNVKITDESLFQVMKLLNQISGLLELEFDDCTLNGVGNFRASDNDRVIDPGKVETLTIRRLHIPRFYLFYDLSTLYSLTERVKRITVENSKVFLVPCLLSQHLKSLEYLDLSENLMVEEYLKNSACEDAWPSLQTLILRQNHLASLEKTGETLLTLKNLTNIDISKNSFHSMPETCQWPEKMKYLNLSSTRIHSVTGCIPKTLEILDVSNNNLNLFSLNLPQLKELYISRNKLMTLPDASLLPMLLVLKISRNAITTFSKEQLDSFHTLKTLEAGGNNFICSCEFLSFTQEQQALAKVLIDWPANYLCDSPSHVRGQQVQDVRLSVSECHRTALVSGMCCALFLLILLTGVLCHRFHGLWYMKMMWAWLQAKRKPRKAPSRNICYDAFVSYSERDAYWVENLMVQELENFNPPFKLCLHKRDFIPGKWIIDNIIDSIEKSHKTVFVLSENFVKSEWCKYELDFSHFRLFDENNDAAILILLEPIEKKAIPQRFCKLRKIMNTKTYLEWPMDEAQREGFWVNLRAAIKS
The assay is described as follows: HEK-Blue human TLR cell screening (NF-κB SEAP reporter). It counts as cell-based. The following applies: compounds at 10 μM, fold change over negative controls; listed as 080. As to the method: HEK cell screening. Human embryonic kidney (HEK)-Blue cell lines expressing human TLRs (hTLRs) and a secreted embryonic alkaline phosphatase (SEAP) reporter under the control of an NF-κB-inducible promoter were cultured in 96-well plates (50,000-75,000 cells/200 μl/well) and stimulated with the indicated compounds at 10 µM or positive controls. The media added to the wells is designed for detection of NF-κB-induced SEAP expression. After 16-24 hours of incubation optical density (OD) was read at 650 nm on a Molecular Devices SpectraMax 340PC absorbance detector. Positive controls employed in this assay were: heat-killed Listeria monocytogenes (1×10^8 cells/ml) for hTLR2, Poly (I:C) HMW (1 μg/ml) for hTLR3, ? E. coli K12 LPS (100 ng/ml) for hTLR4, S. typhimurium flagellin (100 ng/ml) for hTLR5, CL307 (1 μg/ml) for hTLR7, CL075 (1 μg/ml) for hTLR8 and CpG ODN 2006 (1 μg/ml) for hTLR9.

For assay [3], the system named is C57BL/6 mice. The assay is described as follows: Mouse immunization with rHA, anti-rHA IgG titers by ELISA. The assay is classed as in vivo. The conditions noted are these: adult C57BL/6 mice, rHA formulated with compound (100 nmol) i.m., prime Day 0, boost Day 28, versus rHA alone; listed as 080. As to the method:
C57BL/6 mice were obtained from Charles River Laboratories and housed in specific pathogen-free conditions in the animal research facilities at Boston Children's Hospital.
For immunization experiments, adult mice were immunized intramuscularly (i.m.) in the right posterior thigh with 50 μl of vaccine containing 0.33 μg of each of the following recombinant influenza virus hemagglutinins (rHA): A/Michigan/45/2015 (H1N1), A/Hong Kong/4801/2014 (H3N2), and B/Brisbane/60/2008, contained in the 2016-2017 formulation of the FluBlok vaccine (Protein Sciences Corp.). Mice were immunized with a prime-boost schedule (two injections four weeks apart). Vaccine in all experimental groups was formulated with 10% (v/v) DMSO (except for the groups immunized with the small molecules since they were dissolved in DMSO) and 5% (v/v) Tween-80. As indicated for specific experimental groups, vaccine was also formulated with Aluminium hydroxide (100 μg) or compound 080 (100 nmol, final DMSO concentration 10%). Serum was collected 28 days post-prime (pre-boost blood sample) and 14 days post-boost for antibody detection. rHA-specific IgG were quantified by ELISA. […] The optical density was read at 450 nm Versamax microplate reader with SoftMax Pro Version 5 (both from Molecular Devices) and endpoint titers were calculated using as cutoff three times the optical density of the background.
For orientation: In an ELISA, binding on a coated surface is turned into a signal by an enzyme label.

Entries after “also recorded” stand apart in the source; their conditions may differ.

For `CNC(=O)c1c(NC(=O)c2ccc(S(=O)(=O)N(C)C)cc2)sc2c1CCC2` [Compound 80], in assay [1], the “Efficacy in activating NF-κB in THP1 cells (screening hits)” value is “most effective NF-κB activators; also recorded: most effective NF-kB activators”. Besides, the “Activation of human TLR2 (NF-κB activation in TLR-expressing HEK-Blue cells)” value in assay [2] is given as “activate human TLR2; also recorded: activated the human TLR2-expressing human embryonic kidney (HEK)-Blue cell line”. In assay [3], the “Adjuvant activity in vivo (anti-rHA IgG titers)” value is “exerts adjuvant activity in vivo; also recorded: higher antibody titers; also recorded: demonstrates in vivo adjuvanticity”.
